Experiments:
AXL = biological target: T1, AXL (Homo sapiens, UniProt P30530); assay: HotSpot Kinase Assay, AXL
T1 sequence (P30530 26-894): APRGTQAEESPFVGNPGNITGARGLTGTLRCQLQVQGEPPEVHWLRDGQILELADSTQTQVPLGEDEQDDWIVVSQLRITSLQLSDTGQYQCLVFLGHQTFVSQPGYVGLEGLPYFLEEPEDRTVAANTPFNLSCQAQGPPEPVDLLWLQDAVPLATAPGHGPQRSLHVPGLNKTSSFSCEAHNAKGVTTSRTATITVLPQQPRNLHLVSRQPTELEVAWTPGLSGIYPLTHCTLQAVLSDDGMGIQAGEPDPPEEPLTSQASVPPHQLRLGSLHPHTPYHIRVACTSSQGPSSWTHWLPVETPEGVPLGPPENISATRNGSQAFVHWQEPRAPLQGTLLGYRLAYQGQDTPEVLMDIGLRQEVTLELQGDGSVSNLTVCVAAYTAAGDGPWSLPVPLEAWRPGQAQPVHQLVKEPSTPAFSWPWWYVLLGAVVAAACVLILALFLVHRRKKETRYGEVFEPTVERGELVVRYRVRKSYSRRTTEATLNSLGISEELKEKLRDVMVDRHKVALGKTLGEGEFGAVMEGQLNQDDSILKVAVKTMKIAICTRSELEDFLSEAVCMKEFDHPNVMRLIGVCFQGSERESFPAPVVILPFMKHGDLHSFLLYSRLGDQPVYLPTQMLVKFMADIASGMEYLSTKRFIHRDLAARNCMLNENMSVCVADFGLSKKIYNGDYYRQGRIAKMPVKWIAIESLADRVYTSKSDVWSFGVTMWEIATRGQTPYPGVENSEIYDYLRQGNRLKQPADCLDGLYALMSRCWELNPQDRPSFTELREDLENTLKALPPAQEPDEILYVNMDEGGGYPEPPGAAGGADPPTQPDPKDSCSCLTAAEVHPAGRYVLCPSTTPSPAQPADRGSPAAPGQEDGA
Experimental: (§1) Specifically, for each reaction, kinase and substrate were mixed in a pH 7.5 buffer containing 20 mM HEPES, 10 mM MgCl2, 1 mM EGTA [Ethylene glycol-bis(2-aminoethylether)-N,N,N′,N′-tetraacetic acid], 0.02% Brij35, 0.02 mg/mL BSA (Bovine Serum Albumin), 0.1 mM Na3VO4, 2 mM DTT, and 1% DMSO. Compounds were then added to each reaction mixture. After a 20-min incubation, ATP (Sigma-Aldrich) and [γ-^33P] ATP (PerkinElmer) were added at a final total concentration of 100 μM. Reactions were carried out at room temperature for 2 hours and spotted onto P81 ion exchange cellulose chromatography paper (Whatman). […] The percent remaining kinase activity relative to a vehicle-containing (DMSO) kinase reaction was calculated for each kinase/inhibitor pair. […] IC50 values were calculated using Prism 5 (GraphPad).

FMS = FMS (Homo sapiens, UniProt P07333); assay: HotSpot Kinase Assay, FMS
Experimental: as §1

DDR1 = DDR1 (Homo sapiens, UniProt Q08345); assay: HotSpot Kinase Assay, DDR1
DDR1, sequence (Q08345 19-913): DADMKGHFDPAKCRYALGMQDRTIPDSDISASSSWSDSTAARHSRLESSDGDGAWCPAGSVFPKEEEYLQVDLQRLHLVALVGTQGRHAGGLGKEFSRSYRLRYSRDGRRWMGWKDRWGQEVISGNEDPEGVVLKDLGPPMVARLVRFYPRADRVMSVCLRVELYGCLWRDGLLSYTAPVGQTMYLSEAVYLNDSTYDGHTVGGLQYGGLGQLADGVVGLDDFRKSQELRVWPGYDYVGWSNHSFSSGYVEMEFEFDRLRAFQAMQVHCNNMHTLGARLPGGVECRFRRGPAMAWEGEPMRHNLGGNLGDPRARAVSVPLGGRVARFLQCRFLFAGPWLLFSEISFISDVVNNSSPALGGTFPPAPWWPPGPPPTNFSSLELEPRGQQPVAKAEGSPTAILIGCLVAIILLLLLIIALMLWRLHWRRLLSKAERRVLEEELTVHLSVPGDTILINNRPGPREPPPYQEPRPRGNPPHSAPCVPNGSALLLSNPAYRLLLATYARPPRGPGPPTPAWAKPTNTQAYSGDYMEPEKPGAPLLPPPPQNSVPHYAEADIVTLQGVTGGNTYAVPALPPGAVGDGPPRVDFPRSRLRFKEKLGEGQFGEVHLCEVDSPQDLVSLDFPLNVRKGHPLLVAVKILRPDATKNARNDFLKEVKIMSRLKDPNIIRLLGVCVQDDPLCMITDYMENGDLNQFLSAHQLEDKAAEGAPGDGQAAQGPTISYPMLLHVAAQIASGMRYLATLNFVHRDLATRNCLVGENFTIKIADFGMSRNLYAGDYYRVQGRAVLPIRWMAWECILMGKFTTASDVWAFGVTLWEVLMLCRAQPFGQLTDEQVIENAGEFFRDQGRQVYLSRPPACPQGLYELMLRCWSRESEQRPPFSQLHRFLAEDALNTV
Experimental: as §1

c-Kit = c-Kit (Homo sapiens, UniProt P10721); assay: HotSpot Kinase Assay, c-Kit
c-Kit, sequence (P10721 26-976): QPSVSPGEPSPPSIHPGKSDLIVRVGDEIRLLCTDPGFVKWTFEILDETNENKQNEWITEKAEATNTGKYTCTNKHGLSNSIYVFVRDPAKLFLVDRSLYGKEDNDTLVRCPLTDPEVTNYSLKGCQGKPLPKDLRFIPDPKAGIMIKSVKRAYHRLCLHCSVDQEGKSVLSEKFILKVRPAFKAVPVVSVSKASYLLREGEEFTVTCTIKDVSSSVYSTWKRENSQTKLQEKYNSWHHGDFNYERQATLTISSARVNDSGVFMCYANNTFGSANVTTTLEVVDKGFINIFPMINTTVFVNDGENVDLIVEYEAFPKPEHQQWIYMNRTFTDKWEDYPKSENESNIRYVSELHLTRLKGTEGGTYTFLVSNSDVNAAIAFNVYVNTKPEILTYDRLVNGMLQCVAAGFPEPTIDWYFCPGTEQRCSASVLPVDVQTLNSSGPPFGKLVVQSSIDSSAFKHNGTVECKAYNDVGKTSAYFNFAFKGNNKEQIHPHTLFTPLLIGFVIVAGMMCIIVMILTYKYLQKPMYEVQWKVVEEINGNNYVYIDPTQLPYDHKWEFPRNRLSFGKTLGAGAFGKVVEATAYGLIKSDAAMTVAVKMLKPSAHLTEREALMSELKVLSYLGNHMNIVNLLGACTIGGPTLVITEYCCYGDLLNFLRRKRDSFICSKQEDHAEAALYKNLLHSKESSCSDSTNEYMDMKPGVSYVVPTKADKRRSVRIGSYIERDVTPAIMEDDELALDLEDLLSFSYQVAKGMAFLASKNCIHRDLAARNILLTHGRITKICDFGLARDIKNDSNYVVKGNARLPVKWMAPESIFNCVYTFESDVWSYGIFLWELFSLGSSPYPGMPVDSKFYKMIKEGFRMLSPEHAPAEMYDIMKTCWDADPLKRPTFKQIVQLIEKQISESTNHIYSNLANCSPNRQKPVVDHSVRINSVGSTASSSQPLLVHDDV

c-MER = biological target: T2, c-MER (Homo sapiens, UniProt Q12866); assay: HotSpot Kinase Assay, c-MER
T2 sequence (Q12866 21-999): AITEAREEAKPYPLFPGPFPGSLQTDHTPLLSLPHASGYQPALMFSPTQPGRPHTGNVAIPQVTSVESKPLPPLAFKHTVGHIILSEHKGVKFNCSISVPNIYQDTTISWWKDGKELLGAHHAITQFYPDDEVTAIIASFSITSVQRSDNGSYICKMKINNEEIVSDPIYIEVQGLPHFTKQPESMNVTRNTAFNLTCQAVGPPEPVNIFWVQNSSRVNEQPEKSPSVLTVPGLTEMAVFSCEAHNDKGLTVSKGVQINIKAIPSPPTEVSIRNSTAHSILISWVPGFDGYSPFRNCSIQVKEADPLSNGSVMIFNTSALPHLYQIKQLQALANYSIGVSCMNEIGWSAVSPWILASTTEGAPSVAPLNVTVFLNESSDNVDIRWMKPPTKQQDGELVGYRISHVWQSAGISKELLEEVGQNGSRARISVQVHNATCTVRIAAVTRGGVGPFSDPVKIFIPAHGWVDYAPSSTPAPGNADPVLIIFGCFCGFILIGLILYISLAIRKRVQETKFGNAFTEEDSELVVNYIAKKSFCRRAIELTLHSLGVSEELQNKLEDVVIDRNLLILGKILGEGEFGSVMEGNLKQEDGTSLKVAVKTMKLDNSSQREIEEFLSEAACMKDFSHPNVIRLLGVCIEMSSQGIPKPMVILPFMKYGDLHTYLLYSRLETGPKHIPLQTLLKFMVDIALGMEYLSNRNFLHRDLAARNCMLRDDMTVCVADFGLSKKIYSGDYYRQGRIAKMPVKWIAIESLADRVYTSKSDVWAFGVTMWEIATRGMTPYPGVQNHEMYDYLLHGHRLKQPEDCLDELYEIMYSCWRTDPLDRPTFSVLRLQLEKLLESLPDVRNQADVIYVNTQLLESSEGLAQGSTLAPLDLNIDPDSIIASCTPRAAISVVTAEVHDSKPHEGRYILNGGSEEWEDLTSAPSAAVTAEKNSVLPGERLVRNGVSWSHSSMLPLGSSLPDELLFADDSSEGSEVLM
Experimental: as §1

c-MET = c-MET (Homo sapiens, UniProt P08581); assay: HotSpot Kinase Assay, c-MET
Experimental: as §1

EPHA2 = EPHA2 (Homo sapiens, UniProt P29317); assay: HotSpot Kinase Assay, EPHA2
EPHA2, sequence (P29317 24-976): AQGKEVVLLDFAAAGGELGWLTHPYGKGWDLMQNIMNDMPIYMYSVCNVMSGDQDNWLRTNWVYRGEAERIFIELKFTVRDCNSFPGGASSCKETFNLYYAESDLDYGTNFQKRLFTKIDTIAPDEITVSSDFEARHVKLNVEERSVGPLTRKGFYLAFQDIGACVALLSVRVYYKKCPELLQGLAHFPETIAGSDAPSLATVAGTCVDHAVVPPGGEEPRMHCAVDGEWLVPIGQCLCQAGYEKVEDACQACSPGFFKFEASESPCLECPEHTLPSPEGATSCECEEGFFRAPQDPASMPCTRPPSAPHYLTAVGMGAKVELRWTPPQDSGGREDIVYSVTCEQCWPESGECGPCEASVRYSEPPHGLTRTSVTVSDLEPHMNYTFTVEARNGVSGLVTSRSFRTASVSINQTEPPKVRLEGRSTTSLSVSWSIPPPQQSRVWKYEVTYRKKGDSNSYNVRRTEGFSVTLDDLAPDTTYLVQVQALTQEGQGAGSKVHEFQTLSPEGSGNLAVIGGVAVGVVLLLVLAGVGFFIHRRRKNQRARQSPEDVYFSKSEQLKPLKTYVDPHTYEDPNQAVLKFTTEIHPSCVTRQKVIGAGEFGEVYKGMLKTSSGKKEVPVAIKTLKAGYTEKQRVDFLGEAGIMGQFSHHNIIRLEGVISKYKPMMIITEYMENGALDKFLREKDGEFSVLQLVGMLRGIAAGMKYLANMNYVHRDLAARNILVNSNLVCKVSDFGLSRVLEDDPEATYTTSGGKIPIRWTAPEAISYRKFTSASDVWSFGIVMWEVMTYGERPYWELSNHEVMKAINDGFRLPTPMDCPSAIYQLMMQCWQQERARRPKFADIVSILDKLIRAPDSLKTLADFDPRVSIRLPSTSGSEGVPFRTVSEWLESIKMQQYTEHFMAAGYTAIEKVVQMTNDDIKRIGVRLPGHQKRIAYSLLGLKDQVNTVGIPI
Experimental: as §1

LOK/STK10 = LOK/STK10 (Homo sapiens, UniProt O94804); assay: HotSpot Kinase Assay, LOK/STK10
LOK/STK10, sequence (O94804 whole entry): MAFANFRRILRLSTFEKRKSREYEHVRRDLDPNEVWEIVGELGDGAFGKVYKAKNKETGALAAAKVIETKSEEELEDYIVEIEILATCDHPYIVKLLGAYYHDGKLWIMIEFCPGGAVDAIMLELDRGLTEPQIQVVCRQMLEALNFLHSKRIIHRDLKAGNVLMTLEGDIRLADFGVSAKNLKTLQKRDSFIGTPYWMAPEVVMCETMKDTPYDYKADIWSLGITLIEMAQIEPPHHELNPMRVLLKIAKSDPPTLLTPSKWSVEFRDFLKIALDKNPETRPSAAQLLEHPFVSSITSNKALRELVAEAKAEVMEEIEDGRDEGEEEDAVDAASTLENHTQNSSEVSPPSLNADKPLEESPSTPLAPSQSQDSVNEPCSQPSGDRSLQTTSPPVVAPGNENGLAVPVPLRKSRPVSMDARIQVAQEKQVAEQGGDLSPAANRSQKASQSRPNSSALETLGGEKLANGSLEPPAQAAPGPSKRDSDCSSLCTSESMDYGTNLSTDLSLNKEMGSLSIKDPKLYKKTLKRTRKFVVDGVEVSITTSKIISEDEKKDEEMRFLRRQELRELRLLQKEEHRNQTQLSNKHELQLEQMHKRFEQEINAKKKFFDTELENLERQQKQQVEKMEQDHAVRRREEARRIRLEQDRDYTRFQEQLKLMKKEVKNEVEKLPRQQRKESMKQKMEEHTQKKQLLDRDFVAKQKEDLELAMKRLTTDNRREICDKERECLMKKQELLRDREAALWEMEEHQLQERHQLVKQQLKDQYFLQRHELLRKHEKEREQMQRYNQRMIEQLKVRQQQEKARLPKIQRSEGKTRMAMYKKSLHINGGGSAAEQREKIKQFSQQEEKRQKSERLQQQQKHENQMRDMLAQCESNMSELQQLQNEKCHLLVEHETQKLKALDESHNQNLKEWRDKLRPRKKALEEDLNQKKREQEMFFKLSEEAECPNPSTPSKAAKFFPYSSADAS

TYRO3/SKY = biological target: T3, TYRO3/SKY (Homo sapiens, UniProt Q06418); assay: HotSpot Kinase Assay, TYRO3/SKY
T3 sequence (Q06418 41-890): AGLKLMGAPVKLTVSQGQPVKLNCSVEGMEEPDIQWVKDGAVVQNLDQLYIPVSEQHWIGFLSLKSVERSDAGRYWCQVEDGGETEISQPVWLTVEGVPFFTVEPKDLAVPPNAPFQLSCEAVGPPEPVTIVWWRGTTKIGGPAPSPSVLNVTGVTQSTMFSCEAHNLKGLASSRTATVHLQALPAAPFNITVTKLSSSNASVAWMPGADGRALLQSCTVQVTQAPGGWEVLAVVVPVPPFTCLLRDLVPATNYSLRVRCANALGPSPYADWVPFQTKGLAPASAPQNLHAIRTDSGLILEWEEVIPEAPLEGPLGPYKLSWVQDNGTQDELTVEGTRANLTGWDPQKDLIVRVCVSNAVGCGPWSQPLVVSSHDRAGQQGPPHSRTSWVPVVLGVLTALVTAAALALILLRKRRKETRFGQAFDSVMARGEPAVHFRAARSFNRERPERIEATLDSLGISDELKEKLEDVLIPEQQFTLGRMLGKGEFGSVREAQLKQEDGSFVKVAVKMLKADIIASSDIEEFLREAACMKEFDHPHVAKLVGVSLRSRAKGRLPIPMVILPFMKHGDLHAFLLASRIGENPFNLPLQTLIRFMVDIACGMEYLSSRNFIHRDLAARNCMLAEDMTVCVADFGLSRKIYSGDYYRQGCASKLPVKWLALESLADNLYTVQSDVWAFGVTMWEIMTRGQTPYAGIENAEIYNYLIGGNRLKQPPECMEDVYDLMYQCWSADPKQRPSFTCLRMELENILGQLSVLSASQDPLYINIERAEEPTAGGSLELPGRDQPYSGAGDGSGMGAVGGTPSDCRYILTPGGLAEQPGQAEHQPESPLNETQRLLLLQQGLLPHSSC
Experimental: as §1

KDR/VEGFR2 = KDR/VEGFR2 (Homo sapiens, UniProt P35968); assay: HotSpot Kinase Assay, KDR/VEGFR2
KDR/VEGFR2, sequence (P35968 20-1356): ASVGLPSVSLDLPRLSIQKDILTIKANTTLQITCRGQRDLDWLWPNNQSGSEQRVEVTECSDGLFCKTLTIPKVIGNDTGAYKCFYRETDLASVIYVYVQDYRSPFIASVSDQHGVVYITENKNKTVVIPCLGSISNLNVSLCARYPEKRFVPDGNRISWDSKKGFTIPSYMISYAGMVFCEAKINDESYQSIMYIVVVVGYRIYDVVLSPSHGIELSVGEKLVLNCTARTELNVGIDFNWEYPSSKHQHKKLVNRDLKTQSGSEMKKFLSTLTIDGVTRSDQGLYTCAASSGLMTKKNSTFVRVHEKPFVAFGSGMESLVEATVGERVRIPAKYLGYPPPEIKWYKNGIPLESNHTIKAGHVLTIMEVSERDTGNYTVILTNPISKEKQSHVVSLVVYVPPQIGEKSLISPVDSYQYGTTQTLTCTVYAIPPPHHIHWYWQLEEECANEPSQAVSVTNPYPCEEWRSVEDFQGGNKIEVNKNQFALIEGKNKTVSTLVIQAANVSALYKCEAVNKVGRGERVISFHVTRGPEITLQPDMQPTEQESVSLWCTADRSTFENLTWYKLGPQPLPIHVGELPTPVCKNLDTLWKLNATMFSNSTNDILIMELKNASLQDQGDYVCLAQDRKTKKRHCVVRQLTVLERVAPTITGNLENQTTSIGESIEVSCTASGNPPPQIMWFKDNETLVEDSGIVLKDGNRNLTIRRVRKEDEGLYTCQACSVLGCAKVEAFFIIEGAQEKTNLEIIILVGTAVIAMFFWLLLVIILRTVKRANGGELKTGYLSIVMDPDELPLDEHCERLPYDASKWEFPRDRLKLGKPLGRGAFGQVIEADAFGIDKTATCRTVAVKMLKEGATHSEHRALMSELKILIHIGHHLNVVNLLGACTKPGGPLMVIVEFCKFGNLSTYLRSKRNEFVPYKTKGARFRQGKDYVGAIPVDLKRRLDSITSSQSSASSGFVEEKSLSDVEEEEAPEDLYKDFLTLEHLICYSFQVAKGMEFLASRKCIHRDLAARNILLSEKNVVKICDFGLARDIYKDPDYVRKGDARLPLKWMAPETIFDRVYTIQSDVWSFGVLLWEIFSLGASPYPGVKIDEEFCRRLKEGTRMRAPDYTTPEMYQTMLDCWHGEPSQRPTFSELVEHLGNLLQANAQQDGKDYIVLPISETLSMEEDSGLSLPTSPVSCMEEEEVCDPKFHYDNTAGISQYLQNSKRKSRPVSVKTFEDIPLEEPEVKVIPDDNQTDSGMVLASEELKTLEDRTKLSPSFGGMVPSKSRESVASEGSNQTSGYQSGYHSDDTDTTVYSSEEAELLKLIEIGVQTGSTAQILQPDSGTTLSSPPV

SMILES | IC50 (AXL) | IC50 (FMS) | IC50 (DDR1) | IC50 (c-Kit) | IC50 (c-MER) | IC50 (c-MET) | IC50 (EPHA2) | IC50 (LOK/STK10) | IC50 (TYRO3/SKY) | IC50 (KDR/VEGFR2)
COc1cc2c(Oc3ccc(NC(=O)C4(C(=O)Nc5ccc(F)cc5)CC4)cc3)ccnc2cc1OC(=O)N1CCNCC1(C)C [Compound 6-5] | < 100 nM | 100 to 1000 nM | < 100 nM | < 100 nM | < 100 nM | < 100 nM | 100 to 1000 nM | 100 to 1000 nM | 100 to 1000 nM | > 1000 nM
COc1cc2nccc(Oc3ccc(NC(=O)C4(C(=O)Nc5ccc(F)cc5)CC4)cc3)c2cc1OC(=O)N1CCN(C)CC1 [Compound 5-10] | < 100 nM | < 100 nM | < 100 nM | < 100 nM | < 100 nM | < 100 nM | < 100 nM | 100 to 1000 nM | < 100 nM | < 100 nM
COc1cc2c(Oc3ccc(NC(=O)C4(C(=O)Nc5ccc(F)cc5)CC4)cc3)ccnc2cc1OC(=O)N1CCN(C)C[C@@H]1C [Compound 1-12] | < 100 nM | 100 to 1000 nM | < 100 nM | < 100 nM | < 100 nM | < 100 nM | 100 to 1000 nM | 100 to 1000 nM | 100 to 1000 nM | 100 to 1000 nM
COc1cc2c(Oc3ccc(NC(=O)C4(C(=O)Nc5ccc(F)cc5)CC4)cc3)ccnc2cc1OC(=O)N1CC[C@H](O)C1 [Compound 2-5] | < 100 nM | 100 to 1000 nM | < 100 nM | < 100 nM | < 100 nM | < 100 nM | 100 to 1000 nM | 100 to 1000 nM | > 1000 nM | > 1000 nM
COc1cc2c(Oc3ccc(NC(=O)C4(C(=O)Nc5ccc(F)cc5)CC4)cc3)ccnc2cc1OC(=O)N1CCN(C)CC1(C)C [Compound 6-6] | < 100 nM | 100 to 1000 nM | < 100 nM | < 100 nM | < 100 nM | 100 to 1000 nM | 100 to 1000 nM | 100 to 1000 nM | 100 to 1000 nM | 100 to 1000 nM
COc1cc2nccc(Oc3ccc(NC(=O)C4(C(=O)Nc5ccc(F)cc5)CC4)cc3)c2cc1OC(=O)N1CCNC[C@H]1C [Compound 7-2] | < 100 nM | < 100 nM | < 100 nM | < 100 nM | < 100 nM | < 100 nM | < 100 nM | < 100 nM | < 100 nM | < 100 nM
COc1cc2nccc(Oc3ccc(NC(=O)C4(C(=O)Nc5ccc(F)cc5)CC4)cc3)c2cc1OC(=O)N1[C@H](C)CN(C)C[C@@H]1C [Compound 7-5] | < 100 nM | < 100 nM | < 100 nM | < 100 nM | < 100 nM | < 100 nM | 100 to 1000 nM | 100 to 1000 nM | < 100 nM | < 100 nM
COc1cc2c(Oc3ccc(NC(=O)C4(C(=O)Nc5ccc(F)cc5)CC4)cc3)ccnc2cc1OC(=O)N(C)C [Compound 1-15] | 100 to 1000 nM | 100 to 1000 nM | < 100 nM | 100 to 1000 nM | 100 to 1000 nM | 100 to 1000 nM | > 1000 nM | 100 to 1000 nM | > 1000 nM | > 1000 nM
COc1cc2nccc(Oc3ccc(NC(=O)C4(C(=O)Nc5ccc(F)cc5)CC4)cc3)c2cc1OC(=O)N1CCN(C)C[C@H]1C [Compound 7-3] | < 100 nM | < 100 nM | < 100 nM | < 100 nM | < 100 nM | < 100 nM | 100 to 1000 nM | 100 to 1000 nM | < 100 nM | < 100 nM
COc1cc2c(Oc3ccc(NC(=O)C4(C(=O)Nc5ccc(F)cc5)CC4)cc3)ccnc2cc1N1CCNC1=O [Compound 10-2] | < 100 nM | < 100 nM | < 100 nM | < 100 nM | < 100 nM | < 100 nM | 100 to 1000 nM | 100 to 1000 nM | 100 to 1000 nM | 100 to 1000 nM
COc1cc2c(Oc3ccc(NC(=O)C4(C(=O)Nc5ccc(F)cc5)CC4)cc3F)ncnc2cc1OC(=O)N1CCN(C)C[C@H]1C [Compound 9-6, 4-(2-fluoro-4-(1-((4-fluorophenyl)carbamoyl)cyclopropane-1-carboxamido)phenoxy)-6-methoxyquinazolin-7-yl (R)-2,4-methylpiperazine-1-carboxylate] | < 100 nM | 100 to 1000 nM | < 100 nM | 100 to 1000 nM | < 100 nM | < 100 nM | 100 to 1000 nM | > 1000 nM | 100 to 1000 nM | 100 to 1000 nM
COc1cc2c(Oc3ccc(NC(=O)C4(C(=O)Nc5ccc(F)cc5)CC4)cc3)ccnc2cc1OC(=O)N1CCN(C)C[C@H]1C [Compound 1-11, 4-(4-(1-((4-fluorophenyl)carbamoyl)cyclopropane-1-carboxamido)phenoxy)-6-methoxyquinolin-7-yl (R)-2,4-dimethylpiperazine-1-carboxylate] | < 100 nM | < 100 nM | < 100 nM | < 100 nM | < 100 nM | < 100 nM | 100 to 1000 nM | 100 to 1000 nM | 100 to 1000 nM | > 1000 nM

From US11358949B2, “Carbamate and urea compounds as multikinase inhibitors” (ANGEX PHARMACEUTICAL, INC., priority 2017, dated 2022)
